Among the data in patent US11584747B2, “Substituted pyridopyrimidinonyl compounds useful as T cell activators” (BRISTOL-MYERS SQUIBB COMPANY, priority 2019, dated 2023) are IC50 and EC50 values, retold here.

Read-outs that look alike come from different tables or passages of the source.

In experiment [1] the target is human DGKζ (Homo sapiens (Human), UniProt Q13574). In words: DGKζ LIPGLO assay (extruded liposome substrate, ADP-Glo luminescence). In kind it is biochemical. Conditions: liposome assay; read-out: DGK zeta LIPGLO IC50.
Experiment [2] deals with human venous whole blood (IFN-γ). Put plainly: Human whole blood IFN-γ assay. Conditions: whole blood, normalized to 3 μM reference compound as 100% activation, read-out: IFN-γ Whole Blood Normalized EC50. In kind it is cell-based. As to the method:
Human venous whole blood (22.5 μL per well), obtained from healthy donors, was pre-treated with compounds for one hour at 37° C. in a humidified 95% air/5% CO2 incubator. The blood was stimulated with 2.5 μL anti-human CD3 and anti-CD28 mAb at a final concentration of 1 μg/mL each for 24 hours at 37° C. IFN-γ in the supernatants was measured using AlphLISA kit (Cat #AL217).

Experiment [3] concerns the target human DGKα (Homo sapiens (Human), UniProt P23743). In words: DGKα LIPGLO assay (extruded liposome substrate, ADP-Glo luminescence). In kind it is biochemical. Conditions: liposome assay; read-out: DGK alpha LIPGLO IC50.

Sequence of human DGKζ (Q13574 other isoform, or with tags, fused parts or gaps): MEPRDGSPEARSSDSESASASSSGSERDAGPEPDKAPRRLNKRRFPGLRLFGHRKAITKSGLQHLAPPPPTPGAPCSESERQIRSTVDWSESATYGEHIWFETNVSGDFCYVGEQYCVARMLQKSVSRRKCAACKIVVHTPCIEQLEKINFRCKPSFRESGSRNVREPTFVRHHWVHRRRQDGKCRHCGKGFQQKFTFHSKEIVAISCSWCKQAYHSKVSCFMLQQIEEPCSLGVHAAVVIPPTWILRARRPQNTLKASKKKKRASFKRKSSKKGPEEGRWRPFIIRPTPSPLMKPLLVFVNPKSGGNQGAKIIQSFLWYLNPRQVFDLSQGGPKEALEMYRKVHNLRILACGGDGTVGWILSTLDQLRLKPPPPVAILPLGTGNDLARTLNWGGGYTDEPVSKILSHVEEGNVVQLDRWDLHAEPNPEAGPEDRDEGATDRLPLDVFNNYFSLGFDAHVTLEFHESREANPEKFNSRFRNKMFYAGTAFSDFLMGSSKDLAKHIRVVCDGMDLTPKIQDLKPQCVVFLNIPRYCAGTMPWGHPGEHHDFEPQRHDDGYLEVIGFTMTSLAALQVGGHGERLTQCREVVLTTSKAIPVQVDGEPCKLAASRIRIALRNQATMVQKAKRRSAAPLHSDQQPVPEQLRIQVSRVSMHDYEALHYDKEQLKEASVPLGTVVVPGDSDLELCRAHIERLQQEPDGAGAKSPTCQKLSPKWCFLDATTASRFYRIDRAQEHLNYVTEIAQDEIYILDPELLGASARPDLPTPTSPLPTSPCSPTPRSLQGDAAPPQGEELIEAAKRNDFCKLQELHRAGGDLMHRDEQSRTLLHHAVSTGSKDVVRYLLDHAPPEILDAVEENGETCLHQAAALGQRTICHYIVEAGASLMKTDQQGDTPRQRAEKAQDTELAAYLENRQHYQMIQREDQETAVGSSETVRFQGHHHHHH
Sequence of human DGKα (P23743 whole entry, looked up): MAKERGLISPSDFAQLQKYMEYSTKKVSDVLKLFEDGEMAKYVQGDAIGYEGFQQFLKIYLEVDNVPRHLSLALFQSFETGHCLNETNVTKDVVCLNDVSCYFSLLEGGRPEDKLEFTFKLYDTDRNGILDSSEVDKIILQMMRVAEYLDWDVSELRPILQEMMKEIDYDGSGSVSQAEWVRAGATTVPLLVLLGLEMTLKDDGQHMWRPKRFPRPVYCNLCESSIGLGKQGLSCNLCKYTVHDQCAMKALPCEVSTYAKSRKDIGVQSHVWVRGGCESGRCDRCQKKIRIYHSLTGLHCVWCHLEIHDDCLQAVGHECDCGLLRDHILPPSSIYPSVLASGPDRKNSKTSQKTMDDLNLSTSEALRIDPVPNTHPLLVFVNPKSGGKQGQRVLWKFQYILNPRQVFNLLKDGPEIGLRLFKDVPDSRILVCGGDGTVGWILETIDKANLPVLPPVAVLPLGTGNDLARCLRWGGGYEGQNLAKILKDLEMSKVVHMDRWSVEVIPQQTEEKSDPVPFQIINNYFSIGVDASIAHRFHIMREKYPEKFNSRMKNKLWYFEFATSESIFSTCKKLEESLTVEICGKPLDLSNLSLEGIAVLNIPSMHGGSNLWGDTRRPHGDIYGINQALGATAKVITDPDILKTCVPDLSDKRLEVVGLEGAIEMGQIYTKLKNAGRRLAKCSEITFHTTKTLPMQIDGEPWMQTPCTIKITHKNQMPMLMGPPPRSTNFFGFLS

On to `CC[C@@H]1CN(c2nc(=O)n(C)c3ccc(C#N)nc23)[C@@H](C)CN1C(C)c1ccc(C#N)cc1` (single isomer, unassigned) [Example 61], for which the IC50 in experiment [1] was determined as 380 nM; in experiment [3], 52 nM. The EC50 in experiment [2] stood at 4500 nM.

As to `CC(c1ccc(OC(F)(F)F)cc1)N1C[C@H](C)N(c2nc(=O)n(C)c3ccc(C#N)nc23)C[C@H]1CO` (single isomer, unassigned) [Example 184], the IC50 in experiment [1] came to 45000 nM; in experiment [3] it was 2660 nM. Besides, in experiment [2], the EC50 is 20000 nM.

For the molecule `CC[C@@H]1CN(c2nc(=O)n(C)c3ccc(C#N)nc23)[C@@H](C)CN1C(C)c1ccc(OCC2CC2)cc1` (single isomer, unassigned) [Example 68], the IC50 in experiment [1] stood at 480 nM; in experiment [3], 1630 nM. For the same molecule, the EC50 in experiment [2] (Homo sapiens) is 1900 nM.

As to `CC(c1cc(F)c(F)c(F)c1)N1C[C@H](C)N(c2nc(=O)n(C)c3ccc(C#N)nc23)C[C@H]1C` (single isomer, unassigned) [Example 139], the IC50 is 2880 nM in experiment [1] and 25600 nM in experiment [3]. The EC50 in experiment [2] (Homo sapiens) is 20000 nM.

As for `CC[C@H]1CN(C(C)c2ccc(OC)cc2)[C@H](CC)CN1c1nc(=O)n(C)c2ccc(C#N)nc12` (single isomer, unassigned) [Example 17], the results for the IC50 in experiment [1] and in experiment [3] were 2140 nM and 320 nM, respectively. In experiment [2] (Homo sapiens), the EC50 was 2890 nM.

In the case of `CC[C@@H]1CN(c2nc(=O)n(C)c3ccc(C#N)nc23)[C@@H](C)CN1C(C)c1ccc(C(F)(F)F)cc1F` (single isomer, unassigned) [Example 59], the values for the IC50 in experiment [1] and in experiment [3] were 260 nM and 300 nM, respectively. Further, the EC50 in experiment [2] was 500 nM.

Regarding `CC[C@@H]1CN(c2nc(=O)n(C)c3ccc(C#N)nc23)[C@@H](C)CN1C(C)c1ccc(OC(F)(F)F)cc1F` (single isomer, unassigned) [Example 82], the values for the IC50 in experiment [1] and in experiment [3] were 2450 nM and 1540 nM, respectively. Besides, the EC50 in experiment [2] was 530 nM.

With `C[C@@H]1CN(c2nc(=O)n(C)c3ccc(C#N)nc23)[C@@H](C)CN1Cc1ccc(F)cc1Cl` [Example 136, 4-((2S,5R)-4-(2-chloro-4-fluorobenzyl)-2,5-dimethylpiperazin-1-yl)-1-methyl-2-oxo-1,2-dihydropyrido[3,2-d]pyrimidine-6-carbonitrile], the IC50 worked out at 220 nM in experiment [1] and 920 nM in experiment [3]. Also, the EC50 in experiment [2] (Homo sapiens) was determined as 650 nM.

For the molecule `CC(c1ccc(C2CC2)cc1F)N1C[C@H](C)N(c2nc(=O)n(C)c3ccc(C#N)nc23)C[C@H]1C` (single isomer, unassigned) [Example 169], the IC50 in experiment [1] is 2180 nM; in experiment [3], 4620 nM. In addition, in experiment [2], the EC50 came out at 1330 nM.

As for `CC(c1ccc(F)c(F)c1)N1C[C@H](C)N(c2nc(=O)n(C)c3ccc(C#N)nc23)C[C@H]1C` (single isomer, unassigned) [Example 148], the values for the IC50 in experiment [1] and in experiment [3] were 100 nM and 260 nM, respectively. Moreover, the EC50 in experiment [2] was 570 nM.

On to `CC(C)c1ccc(CN2C[C@H](C)N(c3nc(=O)n(C)c4ccc(C#N)nc34)C[C@H]2C)cc1` [Example 137, 4-((2S,5R)-4-(4-isopropylbenzyl)-2,5-dimethylpiperazin-1-yl)-1-methyl-2-oxo-1,2-dihydropyrido[3,2-d]pyrimidine-6-carbonitrile], for which the figures for the IC50 in experiment [1] and in experiment [3] were 190 nM and 83 nM, respectively. In experiment [2] (Homo sapiens), the EC50 was 2650 nM.

As to `CC(c1ccc(C2CC2)cc1)N1C[C@H](C)N(c2nc(=O)n(C)c3ccc(C#N)nc23)C[C@H]1C` (single isomer, unassigned) [Example 4], the IC50 in experiment [1] came to 760 nM; in experiment [3] it was 1330 nM. The EC50 in experiment [2] amounted to 970 nM.

Consider `COC[C@@H]1CN(c2nc(=O)n(C)c3ccc(C#N)nc23)[C@@H](C)CN1C(C)c1ccc(C(F)(F)F)cc1` (single isomer, unassigned) [Example 175], for which the IC50 is 830 nM in experiment [1] and 980 nM in experiment [3]. Besides, in experiment [2], the EC50 worked out at 1690 nM.

For the molecule `CC[C@@H]1CN(c2nc(=O)n(C)c3ccc(C#N)nc23)[C@@H](C)CN1C(c1ccc(F)cc1)c1ccccn1` (single isomer, unassigned) [Example 88], the IC50 stood at 76 nM in experiment [1] and 110 nM in experiment [3]. For the same molecule, the EC50 in experiment [2] was determined as 48 nM.

Consider `CC[C@H]1CN(C(C)c2ccc(C(F)(F)F)nc2)[C@H](CC)CN1c1nc(=O)n(C)c2ccc(C#N)nc12` (single isomer, unassigned) [Example 45], for which the 50% inhibitory concentration (IC50) in experiment [1] was found to be 510 nM; in experiment [3] it was 310 nM. Also, in experiment [2], the EC50 amounted to 1040 nM.

With `C[C@@H]1CN(c2nc(=O)n(C)c3ccc(C#N)nc23)[C@@H](C)CN1Cc1ccc(F)c(F)c1` [Example 133, 4-((2 S,5R)-4-(3,4-difluorobenzyl)-2,5-dimethylpiperazin-1-yl)-1-methyl-2-oxo-1,2-dihydropyrido[3,2-d]pyrimidine-6-carbonitrile], the IC50 was 240 nM in experiment [1] and 530 nM in experiment [3]. Also, the EC50 in experiment [2] (Homo sapiens) is 710 nM.

For `CC(c1ccc(F)cc1)N1C[C@H](C)N(c2nc(=O)n(C)c3ccc(C#N)nc23)C[C@H]1C` (single isomer, unassigned) [Example 129], the concentration for half-maximal inhibition (IC50) in experiment [1] worked out at 1550 nM; in experiment [3] it was 820 nM. For the same molecule, the EC50 in experiment [2] (Homo sapiens) turned out to be 13200 nM.

Turning to `CC[C@@H]1CN(c2nc(=O)n(C)c3ccc(C#N)nc23)[C@@H](C)CN1C(c1ccc(F)cc1)c1ccon1` (single isomer, unassigned) [Example 74], the IC50 in experiment [1] was determined as 960 nM; in experiment [3] it was 250 nM. Moreover, in experiment [2], the concentration giving a half-maximal response (EC50) was determined as 430 nM.

On to `CC[C@H]1CN(C(C)c2ccc(OCC3CC3)cc2)[C@H](CC)CN1c1nc(=O)n(C)c2ccc(C#N)nc12` (single isomer, unassigned) [Example 24], for which the IC50 in experiment [1] came to 630 nM; in experiment [3] it was 680 nM. In experiment [2], the EC50 is 450 nM.

On to `CC(c1ccc(C(F)(F)F)cc1)N1C[C@H](C)N(c2nc(=O)n(C)c3ccc(C#N)nc23)C[C@H]1C` (single isomer, unassigned) [Example 141], for which the figures for the IC50 in experiment [1] and in experiment [3] were 1760 nM and 1270 nM, respectively. In experiment [2], the EC50 worked out at 3550 nM.

Take `CC[C@@H]1CN(c2nc(=O)n(C)c3ccc(C#N)nc23)[C@@H](C)CN1C(C)c1ccc(OCC2CC2)cc1F` (single isomer, unassigned) [Example 70]: the IC50 in experiment [1] stood at 1410 nM; in experiment [3] it was 840 nM. In addition, the EC50 in experiment [2] turned out to be 1440 nM.

For `CC(c1ccc2c(c1)OC(F)(F)O2)N1C[C@H](C)N(c2nc(=O)n(C)c3ccc(C#N)nc23)C[C@H]1C` (single isomer, unassigned) [Example 167], the half-maximal inhibitory concentration (IC50) in experiment [1] stood at 2380 nM; in experiment [3] it was 17800 nM. Further, in experiment [2], the EC50 was found to be 3850 nM.

Regarding `CC[C@@H]1CN(c2nc(=O)n(C)c3ccc(C#N)nc23)[C@@H](C)CN1C(C)c1ccc(OCC2CC2)cc1F` (single isomer, unassigned) [Example 69], the IC50 in experiment [1] worked out at 14 nM; in experiment [3] it was 210 nM. The EC50 in experiment [2] came out at 33 nM.

For `CC[C@@H]1CN(c2nc(=O)n(C)c3ccc(C#N)nc23)[C@@H](C)CN1C(C)c1ccc2c(c1)OC(F)(F)O2` (single isomer, unassigned) [Example 71], the IC50 in experiment [1] is 22 nM; in experiment [3], 670 nM. Moreover, in experiment [2], the EC50 was determined as 66 nM.

On to `CC[C@@H]1CN(c2nc(=O)n(C)c3ccc(C#N)nc23)[C@@H](C)CN1C(C)c1ccc2c(c1)OC(F)(F)O2` (single isomer, unassigned) [Example 72], for which the EC50 in experiment [2] stood at 790 nM. Also, the IC50 in experiment [3] is 1500 nM.

In the case of `CCC(c1ccc(OC(F)(F)F)cc1F)N1C[C@H](CC)N(c2nc(=O)n(C)c3ccc(C#N)nc23)C[C@H]1CC` (some centres unmarked) [Example 11], the IC50 was 60 nM in experiment [1] and 5 nM in experiment [3].

Regarding `CC[C@H]1CN(C(C)c2ccc(C(F)(F)F)cc2N2CCOCC2)[C@H](CC)CN1c1nc(=O)n(C)c2ccc(C#N)nc12` (stereo partly drawn) [Example 195, 4-((2S,5R)-2,5-diethyl-4-(1-(2-morpholino-4-(trifluoromethyl)phenyl)ethyl)piperazin-1-yl)-1-methyl-2-oxo-1,2-dihydropyrido[3,2-d]pyrimidine-6-carbonitrile], the IC50 stood at 5070 nM in experiment [1] and 125000 nM in experiment [3].

As for `CC[C@H]1CN(C(c2ccc(F)cc2)c2cccc(C(F)(F)F)n2)[C@H](C)CN1c1nc(=O)n(C)c2ccc(C#N)nc12` (stereo partly drawn) [Example 120, 4-((2S,5R)-2-ethyl-4-((4-fluorophenyl)(6-(trifluoromethyl)pyridin-2-yl)methyl)-5-methylpiperazin-1-yl)-1-methyl-2-oxo-1,2-dihydropyrido[3,2-d]pyrimidine-6-carbonitrile], the results for the IC50 in experiment [1] and in experiment [3] were 740 nM and 1710 nM, respectively.

As to `CC[C@H]1CN(C(C)c2ccc(OC(F)(F)F)cc2)[C@H](C)CN1c1nc(=O)n(C)c2ccc(C#N)nc12` (stereo partly drawn) [Example 122, 4-((2S,5R)-2-ethyl-5-methyl-4-(1-(4-(trifluoromethoxy)phenyl)ethyl)piperazin-1-yl)-1-methyl-2-oxo-1,2-dihydropyrido[3,2-d]pyrimidine-6-carbonitrile], the IC50 in experiment [1] worked out at 1960 nM; in experiment [3] it was 32 nM.

Turning to `CCC(c1ccc(OC(F)(F)F)cc1)N1C[C@H](C)N(c2nc(=O)n(C)c3ccc(C#N)nc23)C[C@H]1C` (single isomer, unassigned) [Example 155], the IC50 in experiment [1] worked out at 750 nM; in experiment [3], 250 nM.

Take `CC[C@H]1CN(C(C)c2ccc(OC(F)(F)F)cc2)[C@H](CC)CN1c1nc(=O)n(C)c2ccc(C#N)nc12` (single isomer, unassigned) [Example 10]: the figures for the IC50 in experiment [1] and in experiment [3] were 970 nM and 370 nM, respectively.
